Laboratory results from ChEMBL document CHEMBL4665869, “New thiazolopyrimidine as anticancer agents: Synthesis, biological evaluation, DNA binding, molecular modeling and ADMET study” (Bioorg Med Chem Lett, 2020).
Converted amounts (≈) assume the structure as drawn.

Tests used:
[1] = tested on: LOX IMVI; assay: Growth inhibition of human LOX IMVI cells at 10 uM relative to control; format: functional; details: read-out: GI
[2] = tested on: MDA-MB-468; assay: Growth inhibition of human MDA-MB-468 cells at 10 uM relative to control; format: functional; details: read-out: GI
[3] = tested on: T47D; assay: Growth inhibition of human T47D cells at 10 uM relative to control; format: functional; details: read-out: GI
[4] = tested on: CCRF-CEM; assay: Growth inhibition of human CCRF-CEM cells at 10 uM relative to control; format: functional; details: read-out: GI
[5] = tested on: HL-60(TB); assay: Growth inhibition of human HL-60(TB) cells at 10 uM relative to control; format: functional; details: read-out: GI
[6] = tested on: K562; assay: Growth inhibition of human K562 cells at 10 uM relative to control; format: functional; details: read-out: GI
[7] = tested on: MOLT-4; assay: Growth inhibition of human MOLT-4 cells at 10 uM relative to control; format: functional; details: read-out: GI
[8] = tested on: RPMI-8226; assay: Growth inhibition of human RPMI-8226 cells at 10 uM relative to control; format: functional; details: read-out: GI
[9] = tested on: SR; assay: Growth inhibition of human SR cells at 10 uM relative to control; format: functional; details: read-out: GI
[10] = tested on: A549; assay: Growth inhibition of human A549 cells at 10 uM relative to control; format: functional; details: read-out: GI
[11] = tested on: HOP-62; assay: Growth inhibition of human HOP-62 cells at 10 uM relative to control; format: functional; details: read-out: GI
[12] = tested on: HOP-92; assay: Growth inhibition of human HOP-92 cells at 10 uM relative to control; format: functional; details: read-out: GI
[13] = tested on: NCI-H226; assay: Growth inhibition of human NCI-H226 cells at 10 uM relative to control; format: functional; details: read-out: GI
[14] = tested on: NCI-H23; assay: Growth inhibition of human NCI-H23 cells at 10 uM relative to control; format: functional; details: read-out: GI
[15] = tested on: NCI-H322M; assay: Growth inhibition of human NCI-H322M cells at 10 uM relative to control; format: functional; details: read-out: GI
[16] = tested on: NCI-H460; assay: Growth inhibition of human NCI-H460 cells at 10 uM relative to control; format: functional; details: read-out: GI
[17] = tested on: NCI-H522; assay: Growth inhibition of human NCI-H522 cells at 10 uM relative to control; format: functional; details: read-out: GI
[18] = tested on: SW-620; assay: Growth inhibition of human SW-620 cells at 10 uM relative to control; format: functional; details: read-out: GI
[19] = tested on: COLO 205; assay: Growth inhibition of human COLO 205 cells at 10 uM relative to control; format: functional; details: read-out: GI
[20] = tested on: HCC 2998; assay: Growth inhibition of human HCC 2998 cells at 10 uM relative to control; format: functional; details: read-out: GI
[21] = tested on: HCT-116; assay: Growth inhibition of human HCT-116 cells at 10 uM relative to control; format: functional; details: read-out: GI
[22] = tested on: HCT-15; assay: Growth inhibition of human HCT-15 cells at 10 uM relative to control; format: functional; details: read-out: GI
[23] = tested on: HT-29; assay: Growth inhibition of human HT-29 cells at 10 uM relative to control; format: functional; details: read-out: GI
[24] = tested on: KM12; assay: Growth inhibition of human KM12 cells at 10 uM relative to control; format: functional; details: read-out: GI
[25] = tested on: SF-268; assay: Growth inhibition of human SF-268 cells at 10 uM relative to control; format: functional; details: read-out: GI
[26] = tested on: SF-295; assay: Growth inhibition of human SF-295 cells at 10 uM relative to control; format: functional; details: read-out: GI
[27] = tested on: SF-539; assay: Growth inhibition of human SF-539 cells at 10 uM relative to control; format: functional; details: read-out: GI
[28] = tested on: SNB-19; assay: Growth inhibition of human SNB-19 cells at 10 uM relative to control; format: functional; details: read-out: GI
[29] = tested on: SNB-75; assay: Growth inhibition of human SNB-75 cells at 10 uM relative to control; format: functional; details: read-out: GI
[30] = tested on: U-251; assay: Growth inhibition of human U-251 cells at 10 uM relative to control; format: functional; details: read-out: GI
[31] = tested on: Malme-3M; assay: Growth inhibition of human Malme-3M cells at 10 uM relative to control; format: functional; details: read-out: GI
[32] = tested on: M14; assay: Growth inhibition of human M14 cells at 10 uM relative to control; format: functional; details: read-out: GI
[33] = tested on: MDA-MB-435; assay: Growth inhibition of human MDA-MB-435 cells at 10 uM relative to control; format: functional; details: read-out: GI
[34] = tested on: SK-MEL-2; assay: Growth inhibition of human SK-MEL-2 cells at 10 uM relative to control; format: functional; details: read-out: GI
[35] = tested on: SK-MEL-28; assay: Growth inhibition of human SK-MEL-28 cells at 10 uM relative to control; format: functional; details: read-out: GI
[36] = tested on: SK-MEL-5; assay: Growth inhibition of human SK-MEL-5 cells at 10 uM relative to control; format: functional; details: read-out: GI
[37] = tested on: UACC-257; assay: Growth inhibition of human UACC-257 cells at 10 uM relative to control; format: functional; details: read-out: GI
[38] = tested on: UACC-62; assay: Growth inhibition of human UACC-62 cells at 10 uM relative to control; format: functional; details: read-out: GI
[39] = tested on: IGROV-1; assay: Growth inhibition of human IGROV-1 cells at 10 uM relative to control; format: functional; details: read-out: GI
[40] = tested on: OVCAR-4; assay: Growth inhibition of human OVCAR-4 cells at 10 uM relative to control; format: functional; details: read-out: GI
[41] = tested on: OVCAR-5; assay: Growth inhibition of human OVCAR-5 cells at 10 uM relative to control; format: functional; details: read-out: GI
[42] = tested on: OVCAR-8; assay: Growth inhibition of human OVCAR-8 cells at 10 uM relative to control; format: functional; details: read-out: GI
[43] = tested on: NCI/ADR-RES; assay: Growth inhibition of human NCI/ADR-RES cells at 10 uM relative to control; format: functional; details: read-out: GI
[44] = tested on: SK-OV-3; assay: Growth inhibition of human SK-OV-3 cells at 10 uM relative to control; format: functional; details: read-out: GI
[45] = tested on: 786-0; assay: Growth inhibition of human 786-0 cells at 10 uM relative to control; format: functional; details: read-out: GI
[46] = tested on: A498; assay: Growth inhibition of human A498 cells at 10 uM relative to control; format: functional; details: read-out: GI
[47] = tested on: ACHN; assay: Growth inhibition of human ACHN cells at 10 uM relative to control; format: functional; details: read-out: GI
[48] = tested on: CAKI-1; assay: Growth inhibition of human CAKI-1 cells at 10 uM relative to control; format: functional; details: read-out: GI
[49] = tested on: RXF 393; assay: Growth inhibition of human RXF 393 cells at 10 uM relative to control; format: functional; details: read-out: GI
[50] = tested on: SN12C; assay: Growth inhibition of human SN12C cells at 10 uM relative to control; format: functional; details: read-out: GI
[51] = tested on: TK-10; assay: Growth inhibition of human TK-10 cells at 10 uM relative to control; format: functional; details: read-out: GI
[52] = tested on: UO-31; assay: Growth inhibition of human UO-31 cells at 10 uM relative to control; format: functional; details: read-out: GI
[53] = tested on: PC-3; assay: Growth inhibition of human PC-3 cells at 10 uM relative to control; format: functional; details: read-out: GI
[54] = tested on: DU-145; assay: Growth inhibition of human DU-145 cells at 10 uM relative to control; format: functional; details: read-out: GI
[55] = tested on: MCF7; assay: Growth inhibition of human MCF7 cells at 10 uM relative to control; format: functional; details: read-out: GI
[56] = tested on: MDA-MB-231; assay: Growth inhibition of human MDA-MB-231 cells at 10 uM relative to control; format: functional; details: read-out: GI
[57] = tested on: Hs-578T; assay: Growth inhibition of human Hs-578T cells at 10 uM relative to control; format: functional; details: read-out: GI
[58] = tested on: BT-549; assay: Growth inhibition of human BT-549 cells at 10 uM relative to control; format: functional; details: read-out: GI
[59] = molecular target: DNA; assay: Displacement of methyl green from DNA (unknown origin) assessed as DNA intercalation after 24 hrs by colorimetric assay; format: nucleic-acid assay

CC1=CN2C(=NC(/C=C/c3ccc(C)cc3)=CC2c2ccc(C)cc2)S1 (centres undefined)
inhibition of growth at 10 µM [1]: < 10%
inhibition of growth at 10 µM [2]: 11.3%
inhibition of growth at 10 µM [3]: < 10%
inhibition of growth at 10 µM [4]: < 10%
inhibition of growth at 10 µM [5]: < 10%
inhibition of growth at 10 µM [6]: < 10%
inhibition of growth at 10 µM [7]: 12.6%
inhibition of growth at 10 µM [8]: < 10%
inhibition of growth at 10 µM [9]: < 10%
inhibition of growth at 10 µM [10]: < 10%
inhibition of growth at 10 µM [11]: < 10%
inhibition of growth at 10 µM [12]: < 10%
inhibition of growth at 10 µM [13]: < 10%
inhibition of growth at 10 µM [14]: < 10%
inhibition of growth at 10 µM [15]: < 10%
inhibition of growth at 10 µM [16]: < 10%
inhibition of growth at 10 µM [17]: 10.9%
inhibition of growth at 10 µM [18]: < 10%
inhibition of growth at 10 µM [19]: < 10%
inhibition of growth at 10 µM [20]: < 10%
inhibition of growth at 10 µM [21]: < 10%
inhibition of growth at 10 µM [22]: < 10%
inhibition of growth at 10 µM [23]: < 10%
inhibition of growth at 10 µM [24]: < 10%
inhibition of growth at 10 µM [25]: < 10%
inhibition of growth at 10 µM [26]: < 10%
inhibition of growth at 10 µM [27]: < 10%
inhibition of growth at 10 µM [28]: < 10%
inhibition of growth at 10 µM [29]: 13.7%
inhibition of growth at 10 µM [30]: < 10%
inhibition of growth at 10 µM [31]: < 10%
inhibition of growth at 10 µM [32]: < 10%
inhibition of growth at 10 µM [33]: < 10%
inhibition of growth at 10 µM [34]: < 10%
inhibition of growth at 10 µM [35]: < 10%
inhibition of growth at 10 µM [36]: < 10%
inhibition of growth at 10 µM [37]: < 10%
inhibition of growth at 10 µM [38]: < 10%
inhibition of growth at 10 µM [39]: < 10%
inhibition of growth at 10 µM [40]: < 10%
inhibition of growth at 10 µM [41]: < 10%
inhibition of growth at 10 µM [42]: < 10%
inhibition of growth at 10 µM [43]: < 10%
inhibition of growth at 10 µM [44]: < 10%
inhibition of growth at 10 µM [45]: < 10%
inhibition of growth at 10 µM [46]: < 10%
inhibition of growth at 10 µM [47]: < 10%
inhibition of growth at 10 µM [48]: < 10%
inhibition of growth at 10 µM [49]: < 10%
inhibition of growth at 10 µM [50]: < 10%
inhibition of growth at 10 µM [51]: < 10%
inhibition of growth at 10 µM [52]: 19.1%
inhibition of growth at 10 µM [53]: < 10%
inhibition of growth at 10 µM [54]: < 10%
inhibition of growth at 10 µM [55]: < 10%
inhibition of growth at 10 µM [56]: < 10%
inhibition of growth at 10 µM [57]: < 10%
inhibition of growth at 10 µM [58]: < 10%
IC50 [59]: 87.57 µg/mL (≈ 244 µM)
